The target of one test is T1, TRPV6 WT (Homo sapiens, UniProt Q9H1D0).
T1 construct: expressed in transfected cells; host or cells: HEK293 cells, transient transfection
T1 sequence (Q9H1D0 41-765 limits assumed): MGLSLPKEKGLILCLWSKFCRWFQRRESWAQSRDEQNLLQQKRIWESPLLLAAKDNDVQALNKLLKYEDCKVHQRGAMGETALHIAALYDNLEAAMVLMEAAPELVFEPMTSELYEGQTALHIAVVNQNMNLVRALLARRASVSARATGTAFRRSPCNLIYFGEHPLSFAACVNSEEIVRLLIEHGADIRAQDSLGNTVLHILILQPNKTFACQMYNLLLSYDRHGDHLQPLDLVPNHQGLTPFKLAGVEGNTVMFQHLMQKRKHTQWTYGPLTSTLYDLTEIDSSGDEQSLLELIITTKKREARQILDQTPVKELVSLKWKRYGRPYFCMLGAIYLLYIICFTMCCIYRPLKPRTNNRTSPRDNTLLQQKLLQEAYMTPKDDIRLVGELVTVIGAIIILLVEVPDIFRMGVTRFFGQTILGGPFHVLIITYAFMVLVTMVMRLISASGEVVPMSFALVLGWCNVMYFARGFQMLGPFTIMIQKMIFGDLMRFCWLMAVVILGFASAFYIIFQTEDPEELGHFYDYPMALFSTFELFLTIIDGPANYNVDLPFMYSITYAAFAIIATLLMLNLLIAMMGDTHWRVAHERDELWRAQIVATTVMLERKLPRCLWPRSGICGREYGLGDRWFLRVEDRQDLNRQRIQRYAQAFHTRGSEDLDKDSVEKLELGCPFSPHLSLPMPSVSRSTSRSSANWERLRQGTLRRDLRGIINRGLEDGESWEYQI
As to the kind of experiment: Fura-2 Ca2+ imaging, TRPV6 WT. The test is classed as cell-based. Particulars: HEK293 cells; 20 μM control peptide; effect likely attributable to ongoing channel inactivation.

Another test has as its system TRPV6. Particulars: physiologically relevant concentrations; ref [19],[59]; cited from earlier work.

No end group written: not given here. *: point of attachment. Palmitoyl = CCCCCCCCCCCCCCCC(=O)*

As to “Palmitoyl-HAQKHFEAAA [control peptide, palmitoylated peptide having four of the basic residues of the pal-PIP2 peptide replaced by alanine]”, the “decrease in cytosolic Ca2+ level (in words)” value on TRPV6 WT is given as “slow, continuous reduction”.

As for “phosphatidylinositol-4-phosphate [PI(4)P]”, the “activation of TRPV6” value with TRPV6 is given as “does not activate TRPV6”.

Values taken from publication PMC10779433, “Bidirectional Allosteric Coupling between PIP2 Binding and the Pore of the Oncochannel TRPV6” (International Journal of Molecular Sciences, 2024).
